Where two headings read alike, the source gives them in different places.
What was measured:
[1] = tested on: X-linked ichthyosis with severe dry skin; experiment: Topical treatment of X-linked ichthyosis / severe dry skin, clinical evaluation; format: in vivo; settings: Homo sapiens, read-out: improvement in contrast to untreated or vehicle control, clinical evaluation
From the text: For example, human subjects having severe dry skin or ichthyosis, topically applied 1%-5% N-(phosphonomethyl)-glycine creams to lesions for 2 to 3 weeks. After 2 to 3 weeks of topical application, the thick and scaly skin disappeared and the skin became smooth and normal in appearance. Clinical evaluation was judged to be 90% to 100% improvement compared to the untreated condition or when using a vehicle control.
(§1) The present invention will now be described in more detail with reference to the following non-limiting examples. In the initial tests for comparative studies, a control vehicle was always included. It was discovered that all the vehicle controls gave the same results as that of the untreated skin sites; no detectable effects of the controls have been found as judged by clinical evaluation.
(§2) For subjective disorders such as pain, itch or the like, the therapeutic effects were evaluated or judged by the subjects or patients; for example, if the pain or itch had disappeared within hours or days. For other detectable symptoms or syndromes, the therapeutic effects or improvements were evaluated or judged by medical professionals.
N-(phosphonomethyl)-glycine (5 g) was suspended in water (30 ml) and propylene glycol (10 ml), and concentrated ammonium hydroxide (2 ml) was added with stirring. The suspension became a clear solution, and was mixed with hydrophilic ointment (oil-in-water emulsion, 53 g). The white cream thus formulated had pH 3.8 and contained 5% N-(phosphonomethyl)-glycine. A subject who had X-linked ichthyosis with severe dry skin, having thick and rough skin with adherent scales, topically applied the above 5% N-(phosphonomethyl)-glycine cream to an involved skin site twice daily for two weeks. After one week of topical application, the adherent scales disappeared, and the skin became smooth and had 50% improvement in contrast to the untreated or vehicle control as judged by clinical evaluation. After two weeks of topical application, the treated skin became normal in appearance, and had 100% improvement in contrast to the untreated or vehicle control as judged by clinical evaluation.
A subject who had X-linked ichthyosis with severe dry skin, having thick and rough skin with adherent scales, topically applied the above 5% N-(phosphonomethyl)imino-diacetic acid cream to an involved skin site twice daily for two weeks. After one week of topical application, most adherent scales disappeared and the skin had 50% improvement in contrast to the untreated or vehicle control as judged by clinical evaluation. After two weeks of topical application, the scales disappeared completely and the treated skin became smooth, and had 90% improvement in contrast to the untreated or vehicle control as judged by clinical evaluation.
A subject who had X-linked ichthyosis with severe dry skin, having thick and rough skin with adherent scales, topically applied the above 5% N-(phosphonomethyl)-L-tyrosine cream to an involved skin site twice daily for 12 days. After 12 days of topical application, most adherent scales disappeared and the skin became smooth, and had 75% improvement in contrast to the untreated or vehicle control as judged by clinical evaluation.
A subject who had X-linked ichthyosis having thick and rough skin with adherent scales, topically applied the 5% N-(phosphonomethyl)-DL-asparagine cream to an involved skin site twice daily for three weeks. After one week of topical application, most adherent scales disappeared and the treated site appeared smooth. The skin had 75% improvement in contrast to the untreated or vehicle control as judged by clinical evaluation. After three weeks of topical application, the scales disappeared completely and the treated site felt smooth and normal in appearance. The skin had 100% improvement in contrast to the untreated or vehicle control as judged by clinical evaluation. […]

[2] = tested on: hyperpigmented dark skin; experiment: Topical skin lightening of hyperpigmented dark skin, clinical evaluation; format: in vivo, human
Protocol: as §1, §2
A subject who had hyperpigmented dark skin, topically applied 5% N-(phosphonomethyl)-DL-asparagine cream prepared according to Example 7 to an involved skin site twice daily for four weeks. […] The treated site was 25% lighter in skin color in contrast to the untreated or vehicle control as judged by clinical evaluation. After four weeks of topical application, the treated site had substantial reduction in skin pigmentation. The treated site was 50% lighter in contrast to the untreated or vehicle control in skin color as judged by clinical evaluation.
A subject who had hyperpigmented dark skin, topically applied the above 5% N-(phosphonomethyl)-DL-asparagine solution to an involved skin site once every other day with occlusion for ten days. […] The treated site was 25% lighter in skin color as judged by clinical evaluation. After ten days of topical application, the treated site had substantial reduction in skin pigmentation. The treated site was 50% lighter in skin color in contrast to the untreated or vehicle control as judged by clinical evaluation.
(§3) A subject who had hyperpigmented dark skin, topically applied the above 5% N-(phosphonomethyl)-creatine solution to an involved skin site once every other day with occlusion for two weeks. […] The treated site was 25% lighter in skin color in contrast to the untreated or vehicle control as judged by clinical evaluation. After two weeks of topical application, the treated site had very substantial reduction in skin pigmentation. The treated site was 75% lighter in skin color in contrast to the untreated or vehicle control as judged by clinical evaluation.
as §3, with “N-(phosphonomethyl)-glycinamide” for “N-(phosphonomethyl)-creatine”, “had” for “had very”, “50%” for “75%”
A subject who had hyperpigmented dark skin, topically applied the above 5% N-(phosphonomethyl)-L-glutamine solution to an involved skin site once every other day with occlusion for two weeks. After two weeks of topical application, the treated site had substantial reduction in skin pigmentation. The treated site had 50% lighter in skin color in contrast to the untreated or vehicle control as judged by clinical evaluation.

[3] = tested on: chronic plaque psoriasis; experiment: Topical treatment of chronic plaque psoriasis lesion, clinical evaluation; format: in vivo; settings: Homo sapiens, read-out: improvement in contrast to untreated or vehicle control, clinical evaluation
Protocol: as §1, §2
(§4) A subject had chronic plaque psoriasis with erythema, moderately thick and silvery scales. The subject topically applied twice daily the above white cream containing 5% N-(phosphonomethyl)-glycine ethyl ester to one psoriatic lesion for two weeks. At the end of two weeks, the erythema and silvery scales improved substantially, and the treated skin had 50% improvement in contrast to the untreated or vehicle control as judged by clinical evaluation.
as §4, with “10% N-(phosphonomethyl)-L-proline” for “5% N-(phosphonomethyl)-glycine ethyl ester”, “improved very” for “improved”, “75%” for “50%”
as §4, with “N-(phosphonomethyl)-glycine propyl” for “N-(phosphonomethyl)-glycine ethyl”, “improved very” for “improved”, “had 75%” for “had 50%”
as §4, with “N-(phosphonomethyl)-glycine isopropyl” for “N-(phosphonomethyl)-glycine ethyl”, “for a week.” for “for two weeks.”, “of one week,” for “of two weeks,”
as §4, with “8% N-(phosphonomethyl)-glycinamide” for “5% N-(phosphonomethyl)-glycine ethyl ester”, “three” for “two”, “disappeared almost completely,” for “improved substantially,”, “90%” for “50%”
as §4, with “N-(phosphonomethyl)-L-tyrosine” for “N-(phosphonomethyl)-glycine”, “noticeably” for “substantially,”, “25%” for “50%”
A subject had chronic plaque psoriasis with erythema, moderately thick and silvery scales. The subject topically applied twice daily the above white cream containing 10% N-(phosphonomethyl)-D-4-hydroxyphenylglycine to one psoriatic lesion for two weeks. […]

[4] = tested on: itchy eczema; experiment: Topical relief of itch in itchy eczema, judged by subject; format: in vivo, human; settings: for therapeutic evaluation, effective for immediate relief of itch: single topical application
Protocol: as §1, §2
A subject, having itchy eczema on their right thigh, topically applied the above 8% N-(phosphonomethyl)-L-proline ethyl ester cream. […] Therapeutic evaluation was judged to be 100% effective in contrast to the untreated or vehicle control for immediate relief of itch.
A subject, having itchy eczema on their left leg, topically applied 7% N-(phosphonomethyl)-creatine cream prepared according to Example 17. […] Therapeutic evaluation was judged to be 100% effective in contrast to the untreated or vehicle control for immediate relief of itch.
A subject, having itchy eczema on their left thigh, topically applied the above 10% N-(phosphonomethyl)-glutamine. […] Therapeutic evaluation was judged to be 100% effective in contrast to the untreated or vehicle control for immediate relief of itch.

[5] = 5% solution once every other day with occlusion, after seven days
[6] = 5% solution once every other day with occlusion, after two weeks
[7] = 168 h, 5% cream twice daily, after one week
[8] = 336 h, 5% cream twice daily, end of two weeks

NC(=O)CC(NCP(=O)(O)O)C(=O)O (racemic) [N-(phosphonomethyl)-DL-asparagine]
inhibition in vivo at 5 % ([1]; 168 h): 75% | inhibition in vivo at 5 % ([1]; 504 h): 100% | treated site lighter in skin color, clinical evaluation ([2]; 5% cream twice daily, after four weeks): 50% | treated site lighter in skin color, clinical evaluation ([2]; 5% cream twice daily, after two weeks): 25% | treated site lighter in skin color, clinical evaluation [2, 5]: 25% | treated site lighter in skin color, clinical evaluation ([2]; 5% solution once every other day with occlusion, after ten days): 50%

O=C(O)CC[C@H](NCP(=O)(O)O)C(=O)O [N-(phosphonomethyl)-L-glutamic acid]
inhibition in vivo at 8 % ([3]; 336 h, 8% cream twice daily, end of two weeks): 50%

CN(CC(=O)O)C(=N)NCP(=O)(O)O [N-(phosphonomethyl)-creatine]
time the treated skin did not itch after application ([4]; 7% cream): 8 h | time until itch disappeared after topical application ([4]; 7% cream): within a few minutes | therapeutic evaluation, effective for immediate relief of itch ([4]; 7% cream): 100% | inhibition in vivo at 5 % ([1]; 240 h): 50% | inhibition in vivo at 5 % ([1]; 336 h): 100% | treated site lighter in skin color, clinical evaluation [2, 5]: 25% | treated site lighter in skin color, clinical evaluation [2, 6]: 75% | inhibition in vivo at 5 % ([3]; 336 h): 50%

O=C(O)CNCP(=O)(O)O [N-(phosphonomethyl)-glycine]
inhibition in vivo at 5 % [1, 7]: 50% | inhibition in vivo at 5 % ([1]; 336 h, 5% cream twice daily, after two weeks): 100%

CC(C)OC(=O)CNCP(=O)(O)O [N-(phosphonomethyl)-glycine isopropyl ester]
inhibition in vivo at 5 % ([3]; 168 h): 50%

O=C(O)[C@H](NCP(=O)(O)O)c1ccc(O)cc1 [N-(phosphonomethyl)-D-4-hydroxyphenylglycine]
inhibition in vivo at 10 % ([3]; 336 h, 10% cream twice daily, end of two weeks): 70%

O=C(O)[C@@H]1CCCN1CP(=O)(O)O [N-(phosphonomethyl)-L-proline]
inhibition in vivo at 10 % ([3]; 336 h): 75%

O=P(O)(O)CNCCc1ccc(O)cc1 [N-(phosphonomethyl)-tyramine]
inhibition in vivo at 5 % ([1]; 168 h, 5% solution once every other day under occlusion, after one week): 75% | inhibition in vivo at 5 % [3, 8]: 50%

NC(=O)CC[C@H](NCP(=O)(O)O)C(=O)O [N-(phosphonomethyl)-L-glutamine]
time the treated skin did not itch after application ([4]; 10% cream): 8 h | time until itch disappeared after topical application ([4]; 10% cream): within a few minutes | therapeutic evaluation, effective for immediate relief of itch ([4]; 10% cream): 100% | inhibition in vivo at 5 % ([1]; 336 h, 5% solution once every other day (occlusion not stated), after two weeks): 75% | inhibition in vivo at 5 % ([1]; 504 h, 5% solution once every other day (occlusion not stated), after three weeks): 100% | treated site lighter in skin color, clinical evaluation [2, 6]: 50%

O=C(O)CN(CC(=O)O)CP(=O)(O)O [N-(phosphonomethyl)imino-diacetic acid]
inhibition in vivo at 5 % ([1]; 168 h): 50% | inhibition in vivo at 5 % ([1]; 336 h): 90%

CCOC(=O)[C@H](Cc1ccc(O)cc1)NCP(=O)(O)O [N-(phosphonomethyl)-L-tyrosine ethyl ester]
inhibition in vivo at 5 % [1, 7]: 25% | inhibition in vivo at 5 % [3, 8]: 25%

O=C(O)[C@H](Cc1ccc(O)cc1)NCP(=O)(O)O [N-(phosphonomethyl)-L-tyrosine]
inhibition in vivo at 5 % ([1]; 288 h, 5% cream twice daily, after 12 days): 75%

CCCOC(=O)CNCP(=O)(O)O [N-(phosphonomethyl)-glycine propyl ester]
inhibition in vivo at 5 % ([3]; 336 h): 75%

NCC(=O)NCP(=O)(O)O [N-(phosphonomethyl)-glycinamide]
inhibition in vivo at 5 % ([1]; 168 h): 75% | inhibition in vivo at 5 % ([1]; 504 h): 100% | treated site lighter in skin color, clinical evaluation [2, 5]: 25% | treated site lighter in skin color, clinical evaluation [2, 6]: 50% | inhibition in vivo at 8 % ([3]; 504 h): 90%

CCOC(=O)[C@@H]1CCCN1CP(=O)(O)O [N-(phosphonomethyl)-L-proline ethyl ester]
time the treated skin did not itch after application ([4]; 8% cream): 8 h | time until itch disappeared after topical application ([4]; 8% cream): within a few minutes | therapeutic evaluation, effective for immediate relief of itch ([4]; 8% cream): 100%

CCOC(=O)CNCP(=O)(O)O [N-(phosphonomethyl)-glycine ethyl ester]
inhibition in vivo at 5 % ([3]; 336 h): 50%

— US7776844B2, “N-(phosphonoalkyl)-amino acids, derivatives thereof and compositions and methods of use” (priority 2006, dated 2010)
